Experimental data taken from the supplement of paper PMC11451515.

Tested on: NOMO1
Experiment: cell viability relative to DMSO control; higher = less cytotoxic
Conditions: 48 h
Method in brief: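 Three leukemia lines were tested: NOMO1 and SEM at 500 cells/well and P12-Ichikawa at 1000 cells/well. Each was adapted for at least four passages in each medium and seeded in 5 μl in 1536-well plates, and library compounds in DMSO were pin-dosed from 47 μM to 0.79 nM in 11 threefold steps. After 48 h at 37°C, CellTiter-Glo One luminescence was read. Viability is a percentage relative to DMSO wells on each plate, with cell-free wells as background.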

[1] = HPLM + 10% dialyzed FBS, 0.000781 µM
[2] = HPLM + 10% dialyzed FBS, 0.00234 µM
[3] = HPLM + 10% dialyzed FBS, 0.00702 µM
[4] = HPLM + 10% dialyzed FBS, 0.0211 µM
[5] = HPLM + 10% dialyzed FBS, 0.0632 µM
[6] = HPLM + 10% dialyzed FBS, 0.19 µM
[7] = HPLM + 10% dialyzed FBS, 0.569 µM
[8] = HPLM + 10% dialyzed FBS, 1.71 µM
[9] = HPLM + 10% dialyzed FBS, 5.12 µM
[10] = HPLM + 10% dialyzed FBS, 15.4 µM
[11] = HPLM + 10% dialyzed FBS, 46.1 µM
[12] = RPMI 5 mM glucose + 10% FBS, 0.000781 µM
[13] = RPMI 5 mM glucose + 10% FBS, 0.00234 µM
[14] = RPMI 5 mM glucose + 10% FBS, 0.00702 µM
[15] = RPMI 5 mM glucose + 10% FBS, 0.0211 µM
[16] = RPMI 5 mM glucose + 10% FBS, 0.0632 µM
[17] = RPMI 5 mM glucose + 10% FBS, 0.19 µM
[18] = RPMI 5 mM glucose + 10% FBS, 0.569 µM
[19] = RPMI 5 mM glucose + 10% FBS, 1.71 µM
[20] = RPMI 5 mM glucose + 10% FBS, 5.12 µM
[21] = RPMI 5 mM glucose + 10% FBS, 15.4 µM
[22] = RPMI 5 mM glucose + 10% FBS, 46.1 µM
[23] = RPMI 5 mM glucose + 10% dialyzed FBS, 0.000781 µM
[24] = RPMI 5 mM glucose + 10% dialyzed FBS, 0.00234 µM
[25] = RPMI 5 mM glucose + 10% dialyzed FBS, 0.00702 µM
[26] = RPMI 5 mM glucose + 10% dialyzed FBS, 0.0211 µM
[27] = RPMI 5 mM glucose + 10% dialyzed FBS, 0.0632 µM
[28] = RPMI 5 mM glucose + 10% dialyzed FBS, 0.19 µM
[29] = RPMI 5 mM glucose + 10% dialyzed FBS, 0.569 µM
[30] = RPMI 5 mM glucose + 10% dialyzed FBS, 1.71 µM
[31] = RPMI 5 mM glucose + 10% dialyzed FBS, 5.12 µM
[32] = RPMI 5 mM glucose + 10% dialyzed FBS, 15.4 µM
[33] = RPMI 5 mM glucose + 10% dialyzed FBS, 46.1 µM

Compound	cell viability [1]	cell viability [2]	cell viability [3]	cell viability [4]	cell viability [5]	cell viability [6]	cell viability [7]	cell viability [8]	cell viability [9]	cell viability [10]	cell viability [11]	cell viability [12]	cell viability [13]	cell viability [14]	cell viability [15]	cell viability [16]	cell viability [17]	cell viability [18]	cell viability [19]	cell viability [20]	cell viability [21]	cell viability [22]	cell viability [23]	cell viability [24]	cell viability [25]	cell viability [26]	cell viability [27]	cell viability [28]	cell viability [29]	cell viability [30]	cell viability [31]	cell viability [32]	cell viability [33]
CC(C)C(C)/C=C/C(C)C1CCC2C3=CC=C4CC(O)CCC4(C)C3CCC21C (configuration not stated)	104%	101%	115%	111%	104%	99.8%	112%	106%	111%	110%	94.8%	86.5%	97.2%	90.6%	88.4%	96.7%	88.6%	89.9%	92%	85.1%	83%	82.7%	99.1%	88.7%	92.4%	89.8%	99.7%	104%	94.6%	97.7%	86.4%	81.6%	90.4%
C=CC(=O)Nc1cccc(Oc2nc(Nc3ccc(N4CCN(C)CC4)cc3)ncc2Cl)c1	93.3%	110%	119%	125%	131%	112%	106%	97.2%	88.3%	84.9%	135%	–	–	–	–	–	–	–	–	–	–	–	–	–	–	–	–	–	–	–	–	–	–
C[C@H]1[C@H](NC(=O)/C(=N/OC(C)(C)C(=O)O)c2csc(N)n2)C(=O)N1[S+](=O)([O-])O	98.5%	98%	98.9%	111%	108%	110%	113%	88.2%	102%	85.3%	90.4%	105%	98.3%	101%	108%	107%	105%	107%	104%	92.3%	108%	103%	94.2%	101%	94.1%	92.3%	97.3%	94.7%	91.7%	99.2%	85.2%	91.1%	83.3%
CC\1=C/C=C\C=[N]1[Pt](N)(Cl)Cl	118%	105%	111%	110%	108%	130%	131%	98.8%	106%	129%	108%	96.4%	95.6%	93.4%	103%	99.6%	113%	106%	88.7%	106%	110%	93.3%	107%	90.8%	96.6%	95.3%	96.4%	111%	97.3%	104%	107%	109%	96.3%
COC(=O)Nc1nc2cc(C(=O)c3cccs3)ccc2[nH]1	106%	88.5%	113%	81.8%	43.6%	34.2%	32.3%	44%	57.7%	57.3%	53.1%	–	–	–	–	–	–	–	–	–	–	–	98.2%	113%	129%	101%	53.6%	28.1%	33.7%	36.1%	36.2%	40.5%	42.2%
